In one data set the test system is AMPA receptors. Briefly: Patch-clamp potentiation of kainate-induced trans-membrane currents in freshly isolated cerebellar Purkinje's neurons. It counts as cell-based, rat. Conditions: for Potentiation of cainate-induced currents (%) / Potentiation of cainate-induced currents (%): blockade: rat cerebellar Purkinje's neurons; for Washing returned the amplitude of responses to the control value: washing time after application of the compound; for Potentiation of cainate-induced currents (%): blockade: 10 µM, values are printed as blockade, without minus sign. The procedure:
The inventors used determining the potentiating effect of novel compounds on kainate-induced trans-membrane currents in cerebellar Purkinje's neurons of rats for a directed search for compounds capable of potentiating responses of AMPA receptors (and thereby, to cause improvement of memory and cognitive functions).
Experiments on assessing the effect of substances on AMPA receptors were carried out using the patch-clamp method on freshly isolated Purkinje's neurons isolated from cerebellum of rats (aged 12 to 15 days). A modified method was used for isolation. 400 to 600 µm thick cerebellar slices were placed into a thermostatic 10 ml chamber. A solution for isolation had the following composition (in mM): NaCl 150.0, KCl 5.0; CaCl2 2.0, MgSO4×7H2O 2.0, HEPES 10.0, glucose 15.0, pH 7.42. The slices were incubated in this solution for 60 minutes, and thereafter, the solution was replaced by a similar solution comprising pronase (2 mg/ml) and collagenase (1 mg/ml) and incubated for 70 minutes. After washing with the original solution for 20 minutes, the slices were placed into a Petri plate and separated by a mechanic method using a Pasteur pipette. The solutions were continuously blown-through with 100% O2 at temperature 34°C. Purkinje's neurons were placed into a 0.6 ml working chamber. A process solution had the following composition (in mM): NaCl 150.0, KCl 5.0; CaCl2 2.6, MgSO4×7H2O 2.0, HEPES 10.0, glucose 15.0, pH 7.36.
Trans-membrane currents were induced by activation of AMPA receptors by applying agonist solutions of these receptors, i.e. cainic acid (CA) using a fast superfusion method. Cainic acid is an agonist of AMPA receptors and it is used for studying properties of AMPA receptors, since AMPA as such causes a too strong desensitization of the receptors, and it is not used in such experiments. Currents were recorded using borosilicate micro electrodes (resistance 1.5 to […]) filled with a following composition (in mM): KCl 100.0; EGTA 11.0, CaCl2 1.0, MgCl2 1.0, HEPES 10.0, ATP 5.0, pH 7.2.
The instrument EPC-9 (HEKA, Germany) was used for recoding. Currents were recorded on the PC Pentium-4 hard disc using the Pulse software, also purchased from the HEKA company. Results were processed using the Pulsefit software (HEKA).
Applying KK induced trans-membrane inward currents in Purkinje's neurons. Addition of the compounds of formula I to perfusion solution induced increase in amplitude of the currents. This increase was dependent on a compound, on concentration thereof, on time elapsed following commencement of a compound application.
(In patch-clamp work, channel activity is measured electrically.)

The nature of data set [1]: Acute toxicity (LD50, Litchfield and Wilcoxon), intraperitoneal, 14 days follow-up. As to conditions: mouse, in vivo, ip; male white outbred mice, intraperitoneally, follow-up 14 days. How it is done: Acute toxicity of the substances was determined on males of white outbred mice weighing 22 to 26 grams. The substances were administered intraperitoneally as a solution or a suspension in 1% starch solution. Follow-up period was 14 days.

The mark [2] stands for this setting: 0.1 µM, negative values = blockade of the currents.
[3] abbreviates: 1 µM, negative values = blockade of the currents.

What is called LD50 is the dose expected to kill half of the subjects tested.

In the case of `CC12CN(C(=O)c3ccc4c(c3)OCCO4)CC(C)(CN(C(=O)c3ccc4c(c3)OCCO4)C1)C2=O` [Compound 1, 3,7-bis(2,3-dihydro-1,4-benzodioxin-6-ylcarbonyl)-1,5-dimethyl-3,7-diazabicyclo[3.3.1]nonan-9-one], the “Potentiation of cainate-induced currents (%)” value is on record as 0.0001 µM - no potentiation with AMPA receptors (0.0001 µM); 40 to 50% with AMPA receptors (0.001 µM); 0.001 µM - potentiation by 40 to 50%, in the data set with AMPA receptors (0.001 µM, listed as 1 (XXXI)); 80% with AMPA receptors (0.01 µM); 0.01 µM - potentiation by 80% with AMPA receptors (0.01 µM, listed as 1 (XXXI)); 0% with AMPA receptors (setting [2]). Further, the “Potentiation of cainate-induced currents (%)” value in the data set on AMPA receptors (0.1 µM, negative values = blockade of the currents, listed as 1 (XXXI)) is reported as 0.1 µM - 0%,; in the data set on AMPA receptors (setting [3]), -20 to -40%; in the data set with AMPA receptors (1 µM, negative values = blockade of the currents, listed as 1 (XXXI)) it was 1 µM - blockade by -20 to -40%. The “Washing returned the amplitude of responses to the control value” in the data set with AMPA receptors was 3 to 5 min. This compound registered an LD50 at 14 days in data set [1] of 350 mg/kg.
`CC12CN(C(=O)c3ccc4c(c3)OCO4)CC(C)(CN(C(=O)c3ccc4c(c3)OCO4)C1)C2=O` [Compound 2, 3,7-bis(1,3-benzodioxol-5-ylcarbonyl)-1,5-dimethyl-3,7-diazabicyclo[3.3.1]nonan-9-one]: the “Potentiation of cainate-induced currents (%)” value in the data set with AMPA receptors (0.00001 µM) is given as 10%; with AMPA receptors (0.00001 µM, listed as 2 (XXX2)), 0.00001 µM -potentiation by 20 to 40%; in the data set on AMPA receptors (0.0001 µM) it was 50-90%; in the data set on AMPA receptors (0.0001 µM, listed as 2 (XXX2)), 0.0001 µM - potentiation by 50 to 90%,; in the data set on AMPA receptors (0.001 µM), 60-140%; with AMPA receptors (0.001 µM, listed as 2 (XXX2)), 0.001 µM - potentiation by 60 to 140%. The “Potentiation of cainate-induced currents (%)” value with AMPA receptors (0.01 µM) is given as 0-20%; in the data set with AMPA receptors (0.01 µM, listed as 2 (XXX2)), 0.01 µM - potentiation by 0 to 20%,; in the data set with AMPA receptors (0.1 µM, negative values = blockade of the currents, listed as 2 (XXX2)) it was 0.1 µM - blockade by -20 to -40%. Further, the “Washing returned the amplitude of responses to the control value” with AMPA receptors was 4 to 6 min. In data set [1], this compound had a 50% lethal dose (LD50) at 14 days of 140 mg/kg.
For `Cc1nc2ccc(C(=O)N3CC4(C)CN(C(=O)c5ccc6nc(C)c(C)nc6c5)CC(C)(C3)C4=O)cc2nc1C` [Compound 3, 3,7-bis[(2,3-dimethylquinoxalin-6-yl)carbonyl]-1,5-dimethyl-3,7-diazabicyclo[3.3.1]nonan-9-one], the “Potentiation of cainate-induced currents (%)” value is listed as 0.0001 µM - no potentiation with AMPA receptors (0.0001 µM); 0.001 µM - potentiation by 10 to 15% in the data set with AMPA receptors (0.001 µM); 0.01 µM - potentiation by 20 to 30%, with AMPA receptors (0.01 µM); 0.1 µM - blockade by -20 to -50% in the data set on AMPA receptors (setting [2]); 1 µM - no potentiation in the data set on AMPA receptors (setting [3]). Moreover, the “Potentiation of cainate-induced currents (%): blockade” value in the data set on AMPA receptors is on record as 10 µM - blockade by 20 to 50%. The same compound registered an LD50 at 14 days in data set [1] of 90 mg/kg.
As to `COc1ccc(C(=O)N2CC3(C)CN(C(=O)c4ccc(OC)c(Cn5cccn5)c4)CC(C)(C2)C3=O)cc1Cn1cccn1` [Compound 4], the “Potentiation of cainate-induced currents (%)” value is 0.001 µM - no effect in the data set on AMPA receptors (0.001 µM), 0.01 µM - potentiation by 10 to 30%, in the data set with AMPA receptors (0.01 µM), 0.1 µM - blockade by -20 to -40% in the data set on AMPA receptors (setting [2]) and 1 µM - 0% in the data set with AMPA receptors (setting [3]). Moreover, the “Potentiation of cainate-induced currents (%): blockade” value with AMPA receptors was 10 µpM - blockade by 15 to 35%. Besides, the LD50 at 14 days in data set [1] is 900 mg/kg.
In the case of `CC12CC3CC(C)(C1)CC(N)(C3)C2` [Memantine, reference compound], the “Potentiation of cainate-induced currents (%)” value in the data set on AMPA receptors (30 µM) is “potentiation by 0 to 15% at 30 µM”. The compound further came in with an LD50 at 14 days in data set [1] of 1000 mg/kg.

The values are drawn from patent EP2088149A1 (priority 2006, dated 2008).
